Drawing on patent US10669272B2, “Substituted naphthyridinone compounds useful as T cell activators” (BRISTOL-MYERS SQUIBB COMPANY, priority 2018, dated 2020), this text covers IC50 and EC50 for 33 compounds.

pEC50, pIC50: −log10 of the molar value. Where two headings read alike, the source gives them in different places.

One assay has as its target T1, human DGKα (Homo sapiens, UniProt P23743).
T1 construct: TVMV protease cleavage site (C); Hexa-His (C); made in house; host or cells: Sf9 insect cells (baculovirus, Bac-to-Bac)
The assay can be described thus: DGKα LIPGLO assay (extruded liposome substrate), in vitro DGK inhibition. It is filed as biochemical. The conditions noted are these: liposome (LIPGLO) assay; read-out: DGKa LIPGLO IC50.

A further assay deals with T2, human DGKζ (Homo sapiens, UniProt Q13574).
T2 construct: TVMV protease cleavage site (C); Hexa-His (C); made in house; host or cells: Sf9 insect cells (baculovirus, Bac-to-Bac)
T2 sequence (Q13574 with tags, fused parts or gaps isoform Q13574-4): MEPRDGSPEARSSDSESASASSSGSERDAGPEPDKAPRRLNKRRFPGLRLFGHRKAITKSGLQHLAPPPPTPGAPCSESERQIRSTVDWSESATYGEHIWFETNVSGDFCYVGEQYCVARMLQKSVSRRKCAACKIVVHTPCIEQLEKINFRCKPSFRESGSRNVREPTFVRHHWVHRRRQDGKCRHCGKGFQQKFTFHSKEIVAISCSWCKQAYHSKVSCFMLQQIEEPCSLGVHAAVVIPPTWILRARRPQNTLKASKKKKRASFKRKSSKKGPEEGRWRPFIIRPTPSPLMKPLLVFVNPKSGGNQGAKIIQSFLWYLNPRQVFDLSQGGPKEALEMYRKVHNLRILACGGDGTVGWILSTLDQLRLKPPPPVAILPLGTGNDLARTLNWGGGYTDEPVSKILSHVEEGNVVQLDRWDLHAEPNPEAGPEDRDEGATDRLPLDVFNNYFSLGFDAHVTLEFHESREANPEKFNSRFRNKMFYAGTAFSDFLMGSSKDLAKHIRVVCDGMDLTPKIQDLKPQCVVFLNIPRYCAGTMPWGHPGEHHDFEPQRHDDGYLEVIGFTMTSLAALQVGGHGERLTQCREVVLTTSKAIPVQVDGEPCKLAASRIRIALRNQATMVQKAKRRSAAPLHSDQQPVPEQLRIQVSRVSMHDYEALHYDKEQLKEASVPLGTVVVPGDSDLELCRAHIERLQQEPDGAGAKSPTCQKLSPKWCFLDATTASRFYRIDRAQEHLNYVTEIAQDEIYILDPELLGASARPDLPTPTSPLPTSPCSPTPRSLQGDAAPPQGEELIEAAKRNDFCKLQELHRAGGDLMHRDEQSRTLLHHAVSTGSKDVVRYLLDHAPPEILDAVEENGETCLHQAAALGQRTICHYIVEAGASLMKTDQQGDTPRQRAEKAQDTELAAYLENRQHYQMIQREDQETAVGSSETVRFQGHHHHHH
The assay can be described thus: DGKζ LIPGLO assay (extruded liposome substrate), in vitro DGK inhibition. Type of assay: biochemical. To be noted: liposome (LIPGLO) assay; read-out: DGKz LIPGLO IC50.

The next assay has as its system Human venous whole blood. The assay can be described thus: Human whole blood IFN-γ assay.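 Note: blood from healthy donors exposed to compound for 1 h before stimulation with anti-CD3 and anti-CD28 at 1 µg/mL each, IFN-γ quantified in supernatant by AlphaLISA.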 Type of assay: cell-based. To be noted: human whole blood, normalized to 3 μM reference compound with anti-CD3 plus anti-CD28 as 100% activation, read-out: INFg Whole Blood Normalized Agonist EC50.

T1 sequence (P23743 with tags, fused parts or gaps): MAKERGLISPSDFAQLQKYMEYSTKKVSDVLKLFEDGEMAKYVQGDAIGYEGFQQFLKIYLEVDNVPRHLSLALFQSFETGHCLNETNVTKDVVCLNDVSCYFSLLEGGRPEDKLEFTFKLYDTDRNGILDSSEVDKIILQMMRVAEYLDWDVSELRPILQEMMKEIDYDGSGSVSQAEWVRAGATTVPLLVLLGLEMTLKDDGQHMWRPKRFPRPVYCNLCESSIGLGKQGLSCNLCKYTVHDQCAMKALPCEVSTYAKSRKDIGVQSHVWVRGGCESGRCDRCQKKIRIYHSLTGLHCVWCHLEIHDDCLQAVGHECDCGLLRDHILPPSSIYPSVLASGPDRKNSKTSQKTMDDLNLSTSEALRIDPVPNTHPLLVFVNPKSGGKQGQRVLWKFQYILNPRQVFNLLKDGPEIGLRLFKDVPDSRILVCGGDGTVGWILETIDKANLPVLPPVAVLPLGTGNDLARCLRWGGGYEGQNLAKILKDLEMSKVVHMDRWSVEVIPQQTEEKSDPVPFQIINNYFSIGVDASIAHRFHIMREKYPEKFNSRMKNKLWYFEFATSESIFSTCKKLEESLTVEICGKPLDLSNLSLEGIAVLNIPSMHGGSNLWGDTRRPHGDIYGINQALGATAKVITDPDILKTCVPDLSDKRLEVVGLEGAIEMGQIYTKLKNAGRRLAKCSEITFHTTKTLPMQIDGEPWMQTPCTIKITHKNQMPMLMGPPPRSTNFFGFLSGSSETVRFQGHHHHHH
Procedure for Human venous whole blood: Human Whole Blood IFN-γ Assay
Human venous whole blood (22.5 μL per well), obtained from healthy donors, was pre-treated with compounds for one hour at 37° C. in a humidified 95% air/5% CO2 incubator. The blood was stimulated with 2.5 μL anti-human CD3 and anti-CD28 mAb at a final concentration of 1 μg/mL each for 24 hours at 37° C. IFN-γ in the supernatants was measured using AlphLISA kit (Cat # AL217).

As usually defined, the pIC50 is −log10 of the IC50, conventionally taken in molar units. As a reminder, the pEC50 is the negative decadic logarithm of the EC50, by convention in mol/L. Take `Cc1ccc(C(c2ccc(C#N)cc2)N2C[C@H](C)N(c3cc(=O)n(C)c4ccc(C#N)nc34)C[C@H]2C)nc1` (single isomer, unassigned) [Example 361]: the pIC50 at human DGKα was 6.68; on human DGKζ it was 5.96. In addition, in the assay on Human venous whole blood, the negative logarithm of the EC50 (pEC50) is 5.96.

For the compound `Cc1ccc(C(c2ccc(Cl)cc2)N2C[C@H](C)N(c3cc(=O)n(C)c4ccc(C#N)nc34)C[C@H]2C)nc1` (single isomer, unassigned) [Example 365], the pIC50 on human DGKα is 6.57; on human DGKζ it was 6.11. Further, the pEC50 with Human venous whole blood was 6.44.

For the compound `C[C@@H]1CN(c2cc(=O)n(C)c3ccc(C#N)nc23)[C@@H](C)CN1C(c1cccc(F)c1)c1ccccn1` (single isomer, unassigned) [Example 379], the figures for the negative logarithm of the IC50 (pIC50) on human DGKα and at human DGKζ were 5.70 and 5.68, respectively. The pEC50 in the assay with Human venous whole blood (Homo sapiens, 24 h) was 5.96.

Take `Cc1ccc(C(c2ccc(C)c(Cl)c2)N2C[C@H](C)N(c3cc(=O)n(C)c4ccc(C#N)nc34)C[C@H]2C)nc1` (single isomer, unassigned) [Example 380]: the pIC50 was 5.51 on human DGKα and 5.80 on human DGKζ. Moreover, in the assay on Human venous whole blood, the pEC50 was 6.20.

For `C[C@@H]1CN(c2cc(=O)n(C)c3ccc(C#N)nc23)[C@@H](C)CN1C(c1ccc(Cl)cc1)c1ccccn1` (single isomer, unassigned) [Example 382], the pIC50 is 6.66 on human DGKα and 5.60 on human DGKζ. For the same compound, the pEC50 in the assay with Human venous whole blood is 5.59.

In the case of `C[C@@H]1CN(c2cc(=O)n(C)c3ccc(C#N)nc23)[C@@H](C)CN1C(c1ccc(F)cc1)c1cccnn1` (single isomer, unassigned) [Example 383], the pIC50 on human DGKα is 5.25; at human DGKζ it was 4.89. Also, the pEC50 with Human venous whole blood (Homo sapiens, 24 h) is 5.49.

As to `C[C@@H]1CN(c2cc(=O)n(C)c3ccc(C#N)nc23)[C@@H](C)CN1C(c1ccc(F)cc1)C1CCOCC1` (single isomer, unassigned) [Example 387], the results for the pIC50 at human DGKα and on human DGKζ were 5.82 and 5.51, respectively. In the assay with Human venous whole blood (Homo sapiens, 24 h), the pEC50 is 5.44.

As for `Cc1ccc(C(c2cccc(F)c2)N2C[C@H](C)N(c3cc(=O)n(C)c4ccc(C#N)nc34)C[C@H]2C)cn1` (single isomer, unassigned) [Example 390], the results for the pIC50 at human DGKα and on human DGKζ were 4.77 and 5.13, respectively. For the same compound, the pEC50 in the assay on Human venous whole blood is 5.59.

On to `C[C@@H]1CN(c2cc(=O)n(C)c3ccc(C#N)nc23)[C@@H](C)CN1C(c1ccc(F)cc1)c1cncnc1` (single isomer, unassigned) [Example 393], for which the pIC50 on human DGKα is 5.80; at human DGKζ it was 5.15. The pEC50 with Human venous whole blood was 5.46.

For the compound `C[C@@H]1CN(c2cc(=O)n(C)c3ccc(C#N)nc23)[C@@H](C)CN1C(c1ccc(F)cc1)c1cncnc1` (single isomer, unassigned) [Example 394], the negative-log IC50 (pIC50) on human DGKα was 4.38; at human DGKζ it was 4.31. The pEC50 in the assay with Human venous whole blood was 4.74.

Take `Cc1ccc(C(c2cccc(F)c2)N2C[C@H](C)N(c3cc(=O)n(C)c4ccc(C#N)nc34)C[C@H]2C)cn1` (single isomer, unassigned) [Example 395]: the pIC50 was 4.32 at human DGKα and 5.11 on human DGKζ. For the same compound, the pEC50 in the assay on Human venous whole blood was 5.20.

As to `C[C@@H]1CN(c2cc(=O)n(C)c3ccc(C#N)nc23)[C@@H](C)CN1C(c1ccc(Cl)cc1)c1ccncn1` (single isomer, unassigned) [Example 396], the pIC50 on human DGKα was 5.89; at human DGKζ, 5.44. In addition, the pEC50 in the assay on Human venous whole blood (Homo sapiens, 24 h) was 6.72.

With `Cc1nccc(C(c2ccc(F)cc2)N2C[C@H](C)N(c3cc(=O)n(C)c4ccc(C#N)nc34)C[C@H]2C)n1` (single isomer, unassigned) [Example 401], the figures for the negative-log IC50 (pIC50) at human DGKα and at human DGKζ were 5.11 and 5.35, respectively. Also, in the assay on Human venous whole blood, the pEC50 is 6.03.

For `Cc1ncc(C(c2ccc(F)cc2)N2C[C@H](C)N(c3cc(=O)n(C)c4ccc(C#N)nc34)C[C@H]2C)cn1` (single isomer, unassigned) [Example 406], the pIC50 was 5.62 at human DGKα and 5.55 at human DGKζ. The pEC50 in the assay on Human venous whole blood (Homo sapiens, 24 h) was 4.96.

For the compound `C[C@@H]1CN(c2cc(=O)n(C)c3ccc(C#N)nc23)[C@@H](C)CN1C(c1ccc(F)cc1)c1ccnc(C(C)(C)C)n1` (single isomer, unassigned) [Example 408], the values for the pIC50 at human DGKα and on human DGKζ were 5.12 and 6.10, respectively. The pEC50 in the assay on Human venous whole blood (Homo sapiens, 24 h) was 6.10.

Turning to `C[C@@H]1CN(c2cc(=O)n(C)c3ccc(C#N)nc23)[C@@H](C)CN1C(c1ccc(F)cc1)c1ccnc(C(C)(C)C)n1` (single isomer, unassigned) [Example 409], the pIC50 at human DGKα was 5.28; at human DGKζ, 7.28. For the same compound, the pEC50 in the assay with Human venous whole blood is 6.37.

Consider `C[C@@H]1CN(c2cc(=O)n(C)c3ccc(C#N)nc23)[C@@H](C)CN1C(c1ccc(F)cc1)c1cncc(F)c1` (single isomer, unassigned) [Example 415], for which the pIC50 is 4.46 at human DGKα and 4.72 on human DGKζ. Further, the pEC50 in the assay on Human venous whole blood (Homo sapiens, 24 h) is 4.80.

As to `Cc1ccc(C(c2cncc(F)c2)N2C[C@H](C)N(c3cc(=O)n(C)c4ccc(C#N)nc34)C[C@H]2C)cc1` (single isomer, unassigned) [Example 416], the pIC50 at human DGKα was 4.68; on human DGKζ, 4.85. The pEC50 in the assay on Human venous whole blood is 5.28.

On to `CC[C@@H]1CN(c2cc(=O)n(C)c3ccc(C#N)nc23)[C@@H](C)CN1C(c1ccc(F)cc1)c1ccnc(C)n1` (single isomer, unassigned) [Example 418], for which the pIC50 on human DGKα is 5.82; on human DGKζ it was 6.89. In addition, the pEC50 in the assay with Human venous whole blood is 6.55.

Regarding `CCC(c1ccc(OC(F)(F)F)cc1F)N1C[C@H](C)N(c2cc(=O)n(C)c3ccc(C#N)nc23)C[C@H]1CC` (single isomer, unassigned) [Example 420], the figures for the pIC50 on human DGKα and on human DGKζ were 6.51 and 6.60, respectively. Further, the pEC50 in the assay with Human venous whole blood was 6.82.

With `CCC(c1ccc(OC(F)(F)F)cc1F)N1C[C@H](C)N(c2cc(=O)n(C)c3ccc(C#N)nc23)C[C@H]1CC` (single isomer, unassigned) [Example 421], the pIC50 at human DGKα was 5.11; at human DGKζ it was 5.74. Besides, in the assay on Human venous whole blood, the pEC50 is 5.59.

With `CC[C@@H]1CN(c2cc(=O)n(C)c3ccc(C#N)nc23)[C@@H](C)CN1C(c1ccc(Cl)cc1)c1ccccn1` (single isomer, unassigned) [Example 422], the pIC50 on human DGKα is 6.92; on human DGKζ, 7.05. Also, the pEC50 in the assay with Human venous whole blood was 6.66.

As for `CC[C@@H]1CN(c2cc(=O)n(C)c3ccc(C#N)nc23)[C@@H](C)CN1C(c1ccc(Cl)cc1)c1ccccn1` (single isomer, unassigned) [Example 423], the pIC50 is 7.57 on human DGKα and 6.77 on human DGKζ. For the same compound, the pEC50 in the assay on Human venous whole blood is 6.13.

For the compound `[2H]C(C)(c1ccc(F)cc1)N1C[C@H](C)N(c2c(F)c(=O)n(C)c3ccc(C#N)nc23)C[C@H]1C` (single isomer, unassigned) [Example 424], the pIC50 is 6.54 at human DGKα and 4.43 on human DGKζ. The pEC50 in the assay on Human venous whole blood was 4.80.

As for `Cc1c(F)ccc(C(C)N2C[C@H](C)N(c3cc(=O)n(C)c4ccc(C#N)nc34)C[C@H]2C)c1Cl` (single isomer, unassigned) [Example 433], the pIC50 is 4.10 at human DGKα and 6.62 on human DGKζ. Further, in the assay with Human venous whole blood (Homo sapiens, 24 h), the negative logarithm of the EC50 (pEC50) is 5.89.

`CC(c1ccc(OC(F)(F)F)cc1)N1C[C@H](C)N(c2cc(=O)n(C)c3ccc(C#N)nc23)C[C@H]1C` (single isomer, unassigned) [Example 435]: the pIC50 at human DGKα was 5.96; on human DGKζ it was 5.31. For the same compound, the pEC50 in the assay with Human venous whole blood is 5.60.

Regarding `CC(c1ccc(OC(F)(F)F)cc1)N1C[C@H](C)N(c2cc(=O)n(C)c3ccc(C#N)nc23)C[C@H]1C` (single isomer, unassigned) [Example 436], the pIC50 is 7.19 on human DGKα and 6.09 on human DGKζ. Also, the pEC50 in the assay on Human venous whole blood is 6.36.

As to `CCC(c1ccc(OC(F)(F)F)cc1F)N1C[C@H](C)N(c2cc(=O)n(C)c3ccc(C#N)nc23)C[C@H]1C` (single isomer, unassigned) [Example 440], the pIC50 on human DGKα was 7.09; on human DGKζ, 6.49. For the same compound, the pEC50 with Human venous whole blood was 6.00.

Consider `CCC(c1ccc(OC(F)(F)F)cc1F)N1C[C@H](C)N(c2cc(=O)n(C)c3ccc(C#N)nc23)C[C@H]1C` (single isomer, unassigned) [Example 441], for which the negative-log IC50 (pIC50) was 5.82 at human DGKα and 5.62 on human DGKζ. The pEC50 in the assay with Human venous whole blood is 5.10.

Turning to `CC(c1ccc(OC(F)(F)F)cc1F)N1C[C@H](C)N(c2cc(=O)n(C)c3ccc(C#N)nc23)C[C@H]1C` (single isomer, unassigned) [Example 442], the pIC50 is 5.85 at human DGKα and 5.74 on human DGKζ. Moreover, the pEC50 in the assay with Human venous whole blood was 5.12.

With `C[C@@H]1CN(c2cc(=O)n(C)c3ccc(C#N)nc23)[C@@H](C)CN1C(c1cccc(F)c1)c1cccc2c1OCCCO2` (single isomer, unassigned) [Example 445], the pIC50 is 4.40 at human DGKα and 6.38 on human DGKζ. In the assay with Human venous whole blood (Homo sapiens, 24 h), the pEC50 was 5.59.

On to `Cc1ccnc(C(c2ccc(Cl)cc2)N2C[C@H](C)N(c3cc(=O)n(C)c4ccc(C#N)nc34)C[C@H]2C)c1` (single isomer, unassigned) [Example 448], for which the pIC50 at human DGKα and at human DGKζ was 6.18 in each case. Also, the pEC50 in the assay on Human venous whole blood is 5.96.

Take `Cc1ccc(C(c2cccc3c2OCCCO3)N2C[C@H](C)N(c3cc(=O)n(C)c4ccc(C#N)nc34)C[C@H]2C)nc1` (single isomer, unassigned) [Example 451]: the pIC50 at human DGKα is 4.62; at human DGKζ it was 6.28. Besides, in the assay with Human venous whole blood, the pEC50 was 5.12.
